These results are taken from patent publication US9499495B2, “Quinazolines and azaquinazolines as dual inhibitors of RAS/RAF/MEK/ERK and PI3K/AKT/PTEN/mTOR pathways” (Asana Biosciences, LLC, priority 2013, dated 2016).

The target in assay [1] is T1, PI3Kα (Homo sapiens, UniProt P42336).
T1 construct: made in house; host or cells: SF9 cells
In words: PI3 Kinase alpha TR-FRET assay. It counts as biochemical. The method in brief: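 Purified Sf9-expressed p110/p85α (5 ng) was pre-incubated with compound and PIP2 at rt, then ATP was added (PIP2 and ATP both 40 μM) for a 30 min reaction. PIP3 was detected by TR-FRET displacement of biotin-PIP3, and IC50 was taken from dose-response curves of the 665/615 nm emission ratio.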
On the technique in general: TR-FRET usually uses a lanthanide donor and a delayed reading to cut background.

Assay [2] concerns the target T2, B-RAFV600E (Homo sapiens, UniProt P15056, V600E).
T2 construct: purchased Millipore, USA 14-557
The experiment in a line: B-RAFV600E radiometric assay. It counts as biochemical. To be noted: read-out: Kinase assay B-Raf. The method in brief:
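B-RAFV600E was preincubated 45 min at rt with compound in 1% DMSO. MEK-K97M (0.5 μg), 5 μM final cold ATP and [γ-32P]ATP were then added for 2 h at rt. Phosphorylated MEK was captured on P81 paper and scintillation-counted; IC50 came from a sigmoidal dose-response fit.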

The subject of assay [3] is pERK in A375 cells. In words: In Cell Western (ICW) assay, pERK in A375 cells. It counts as cell-based. Particulars: Homo sapiens, A-375, 3 h treatment. The method in brief: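 After a 3 h compound treatment at 37 °C, fixed RKO or A375 cells were probed for phospho-ERK1/2 (T202/Y204), phospho-S6RP or phospho-AKT T308 and detected with a Eu-tagged anti-rabbit antibody (ex 340/em 615 nm), with Hoechst signal as the cell-number correction. Inhibition was referenced to DMSO, and IC50 values came from sigmoidal dose-response curves.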

T2 sequence (P15056 416-766 V600E limits assumed): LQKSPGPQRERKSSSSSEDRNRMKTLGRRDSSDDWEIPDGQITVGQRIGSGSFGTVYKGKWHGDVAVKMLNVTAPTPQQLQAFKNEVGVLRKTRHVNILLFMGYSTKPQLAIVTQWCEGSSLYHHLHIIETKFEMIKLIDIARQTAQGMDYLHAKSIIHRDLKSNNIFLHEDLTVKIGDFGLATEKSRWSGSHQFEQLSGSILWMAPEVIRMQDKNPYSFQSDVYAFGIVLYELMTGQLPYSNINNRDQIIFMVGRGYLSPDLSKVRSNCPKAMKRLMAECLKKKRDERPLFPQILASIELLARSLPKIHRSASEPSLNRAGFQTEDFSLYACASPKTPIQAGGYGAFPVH
T1 sequence (P42336 whole entry, species assumed): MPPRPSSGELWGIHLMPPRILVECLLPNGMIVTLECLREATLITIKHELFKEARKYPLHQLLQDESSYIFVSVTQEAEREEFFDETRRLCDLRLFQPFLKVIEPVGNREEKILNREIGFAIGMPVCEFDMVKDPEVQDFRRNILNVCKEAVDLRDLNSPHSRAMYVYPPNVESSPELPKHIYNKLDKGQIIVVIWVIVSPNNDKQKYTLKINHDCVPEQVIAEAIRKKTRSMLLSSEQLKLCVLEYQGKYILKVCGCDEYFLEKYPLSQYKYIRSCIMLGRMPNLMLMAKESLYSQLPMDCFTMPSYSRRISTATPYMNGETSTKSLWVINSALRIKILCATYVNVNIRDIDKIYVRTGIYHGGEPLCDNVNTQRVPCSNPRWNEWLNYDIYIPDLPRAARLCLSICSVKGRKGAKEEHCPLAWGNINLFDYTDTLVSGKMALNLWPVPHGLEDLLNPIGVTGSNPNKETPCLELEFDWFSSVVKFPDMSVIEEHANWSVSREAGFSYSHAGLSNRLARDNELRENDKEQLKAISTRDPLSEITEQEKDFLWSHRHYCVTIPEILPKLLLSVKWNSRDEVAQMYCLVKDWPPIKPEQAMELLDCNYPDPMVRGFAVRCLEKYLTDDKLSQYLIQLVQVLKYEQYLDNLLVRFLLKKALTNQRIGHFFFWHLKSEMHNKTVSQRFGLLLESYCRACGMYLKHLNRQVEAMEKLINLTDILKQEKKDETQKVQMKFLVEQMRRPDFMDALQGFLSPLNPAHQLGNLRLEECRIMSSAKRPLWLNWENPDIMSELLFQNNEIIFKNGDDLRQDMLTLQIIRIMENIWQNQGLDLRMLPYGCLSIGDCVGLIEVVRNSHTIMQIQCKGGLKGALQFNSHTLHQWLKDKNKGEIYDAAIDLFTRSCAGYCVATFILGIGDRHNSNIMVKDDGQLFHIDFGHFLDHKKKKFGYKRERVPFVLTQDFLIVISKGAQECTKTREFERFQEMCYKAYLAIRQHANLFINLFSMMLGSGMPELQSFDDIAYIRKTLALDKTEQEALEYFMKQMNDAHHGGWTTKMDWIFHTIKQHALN
T1 sequence (P27986 whole entry partner, species assumed): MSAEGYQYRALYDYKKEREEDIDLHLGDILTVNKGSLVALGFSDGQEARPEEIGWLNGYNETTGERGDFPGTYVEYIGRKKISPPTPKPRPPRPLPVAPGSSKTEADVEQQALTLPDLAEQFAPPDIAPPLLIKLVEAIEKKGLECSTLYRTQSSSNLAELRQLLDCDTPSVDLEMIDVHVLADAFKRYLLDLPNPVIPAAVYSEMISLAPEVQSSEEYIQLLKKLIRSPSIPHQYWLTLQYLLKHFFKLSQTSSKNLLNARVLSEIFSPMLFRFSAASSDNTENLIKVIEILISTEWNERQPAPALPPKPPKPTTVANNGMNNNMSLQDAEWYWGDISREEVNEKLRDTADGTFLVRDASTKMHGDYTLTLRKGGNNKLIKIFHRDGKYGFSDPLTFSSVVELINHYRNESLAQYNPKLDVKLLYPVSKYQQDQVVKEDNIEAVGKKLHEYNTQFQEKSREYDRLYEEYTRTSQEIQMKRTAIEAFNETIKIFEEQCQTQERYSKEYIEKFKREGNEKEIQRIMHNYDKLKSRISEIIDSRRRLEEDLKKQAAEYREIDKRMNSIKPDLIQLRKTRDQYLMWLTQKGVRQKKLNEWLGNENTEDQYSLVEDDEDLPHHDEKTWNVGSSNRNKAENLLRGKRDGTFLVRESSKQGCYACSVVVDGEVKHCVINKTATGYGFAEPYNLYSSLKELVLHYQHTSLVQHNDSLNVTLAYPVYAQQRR

Consider `Nc1ncc(-c2nc(N3CCOCC3)c3cc(-c4cccc(NS(=O)(=O)CCCF)c4F)cc(N4CCOCC4)c3n2)cn1` [Example 69, N-(3-(2-(2-aminopyrimidin-5-yl)-4,8-dimorpholinoquinazolin-6-yl)-2-fluorophenyl)-3-fluoropropane-1-sulfonamide], for which the figures for the IC50 in assay [1], in assay [2] and in assay [3] were 100 to 1000 nM, 1 to 100 nM and 1 to 100 nM, respectively.
Turning to `Cc1cc(-c2cccc(NS(=O)(=O)CCCF)c2F)cc2c(N3CCOCC3)nc(-c3cnc(N)nc3)nc12` [Example 116, N-(3-(2-(2-aminopyrimidin-5-yl)-8-methyl-4-morpholinoquinazolin-6-yl)-2-fluorophenyl)-3-fluoropropane-1-sulfonamide], the IC50 in assay [1] lay within 100 to 1000 nM; in assay [2], 1 to 100 nM; in assay [3], 1 to 100 nM.
`C[C@@H]1COCCN1c1nc(-c2ccc(N)nc2)nc2ccc(-c3cccc(NS(=O)(=O)CCCF)c3F)nc12` [Example 96, (R)-N-(3-(2-(6-aminopyridin-3-yl)-4-(3-methylmorpholino)pyrido[3,2-d]pyrimidin-6-yl)-2-fluorophenyl)-3-fluoropropane-1-sulfonamide]: the IC50 lay in the range of 100 to 1000 nM in assay [1], 1 to 100 nM in assay [2] and 1 to 100 nM in assay [3].
For the compound `Cc1cc(N)ncc1-c1nc(N2CCOCC2)c2nc(-c3cccc(NS(=O)(=O)CCCF)c3F)ccc2n1` [Example 101, N-(3-(2-(6-amino-4-methylpyrtdin-3-yl)-4-morpholinopyrldo[3,2-d]pyrimidin-6-yl)-2-fluorophenyl)-3-fluoropropane-1-sulfonamide], the IC50 in assay [1], in assay [2] and in assay [3] was 1 to 100 nM in each case.
Take `COc1cc(-c2cccc(NS(=O)(=O)CCCF)c2F)cc2c(N3CCOC[C@H]3C)nc(-c3cnc(N)c(F)c3)nc12` [Example 134, (R)-N-(3-(2-(6-amino-5-fluoropyridin-3-yl)-8-methoxy-4-(3-methylmorpholino)quinazolin-6-yl)-2-fluorophenyl)-3-fluoropropane-1-sulfonamide]: the IC50 was 1000 to 10000 nM in assay [1], 1 to 100 nM in assay [2] and 1 to 100 nM in assay [3].
For `Nc1cc(C(F)(F)F)c(-c2nc(N3CCOCC3)c3nc(-c4cccc(NS(=O)(=O)c5c(F)cccc5F)c4F)ccc3n2)cn1` [Example 106, N-(3-(2-(6-amino-4-(trifluoromethyl)pyridin-3-yl)-4-morpholinopyrido[3,2-d]pyrimidin-6-yl)-2-fluorophenyl)-2,6-difluorobenzenesulfonamide], the IC50 in assay [1] lay in the range of 1 to 100 nM; in assay [2], 1 to 100 nM; in assay [3], 1000 to 10000 nM.
